By IC50 is commonly meant the concentration that gives 50% inhibition.

One assay deals with microtubules. The note with it: cell free systems; cited from earlier work.
Assay [1] has as its system HL60 acute myeloid leukemia cells. As to the kind of experiment: Viability of leukemia cells, HL60. The format is cell-based, human. The note with it: Homo sapiens, HL-60; HL60, 72 h; read-out: IC50 for viability of leukemia cell lines. Here is the method:
The human chronic myeloid leukemia K562/S and K562/Vcr30 lines and the acute myeloid leukemia cell lines HL60/0 and HL60/Nov were obtained from ATCC. The K562/S and HL60/0 are wild type (non-resistant) cells, whereas K562/Vcr30 and HL60/Nov are cytostatic-resistant sublines. All leukemia cell lines were cultured in RPMI 1640 medium supplemented with 10% fetal bovine serum and with 2 mM glutamine, 1% benzyl-penicillin and streptomycin. The cells were grown in tissue culture flasks maintained at 95% air/5% CO2 atmosphere at 37° C. in a humidified incubator. For the experiments 25,000 cells were cultured in 60-mm plastic dishes or 96-well plastic plates. The experiments on leukemia cells were performed in collaboration with Associate professor Sigurd Vitols, Department of Pharmacology, Karolinska Hospital (Stockholm, Sweden).
Cell proliferation kit II (Roche Inc.) is based on calorimetric change of the yellow tetrazolium salt XTT in orange formazan dye by the respiratory chain of viable cells (Roehm, N W, et al., J Immunol Methods 142:257-265, 1991). Cells seeded at a concentration of 5000/well in 100 μl medium in a 96-well plate were treated with different drugs in the given concentration. After 24 or 48 h the cells were incubated, according to the manufacturer's protocol, with XTT labelling mixture. After 4 h the formazan dye is quantified using a scanning multiwell spectrophotometer with a 495-nm filter. The absorbance is directly correlated with number of viable cells. The standard absorbance curve was drawn by means of untreated cells seeded at a concentration of from 1000 to 10 000 cells/well with an increasing rate of 1000 cells/well. All standards and experiments were performed in triplicates.
The leukemia cell lines K562/S, K562/Vcr 30, HL60/0 and HL60/Nov were proven to express the IGF-1R. This was assayed by Western blotting analysis, as described in Methods and Experiment 1 and 2. The 4 leukemia cell lines were seeded in 96-well plates (medium volume in a well was 100 μl), in RPMI40 medium supplemented with fetal calf serum. After 24 h podophyllotoxin, deoxypodophyllotoxin and other derivatives were added at different concentrations for 72 h. Cell viability was then assayed (see above). IC50 values for each inhibitor and cell lines are shown below (Table 5). The results are based on 3 different experiments.

On to `COc1cc([C@@H]2c3cc4c(cc3[C@H](O)[C@H]3COC(=O)[C@H]23)OCO4)cc(OC)c1OC` [Podophyllotoxin, podophyllotoxin], for which the effect on microtubules result in the assay with microtubules is recorded as “required μM concentrations”. Moreover, in assay [1], the IC50 was determined as 3 nM.

These data come from US7709526B2, “Use of cyclolignans and new cyclolignans” (Biovitrum AB, priority 2001, dated 2010).
